Measured values published in US20150104868A1, “Methods of Maintaining and Improving Biological Cell Function and Activity” (GARGILL INCORPORATED, priority 2012, published 2015).
“Also recorded” adds a separate entry of the source. Like-named read-outs stand apart in the source and are kept apart here.

Tests used:
HUVEC cells [1] = assay: HUVEC cell viability assay (trypan blue, percentage of dead cells); assay type: cell-based, human; conditions: ERT/MAN 5 mM 1 h before, SIN-1 0.5 mM, CML 1 micromolar
Method: A HUVEC cell line (CRL-1730) was obtained from American Type Culture Collection (ATCC) of Manassas, Va. […] The prepared cells were maintained in collagen coated T75 flasks (Greiner Bio-one) at 37° C. in a 5% CO2 atmosphere. The prepared cells were subjected to various stressors. Stressors, for purposes of the examples, include conditions of stress caused by glucose directly or indirectly through the formation or elevation of other substances that cause stress. Diabetic stressors include high glucose (HG; 30 mM, 24 h), TNFα: pro-inflammatory agent, Nε carboxymethyllysine: advanced glycation end (AGE) product, and SIN-1: peroxynitrite generator. Prepared cells were also exposed to normal glucose (NG; 7 mM, 24 h) as a control. The prepared cells were seeded in 6 well plates and T75 flasks and grown until 80% confluence. The medium was removed, and the cells were washed with Hank's Balanced Salt Solution (HBSS). […] The vehicle solution is the solvent for the test compounds, in this case being the medium without supplements. […] The cells described above were also incubated for 24 hours with a 7 mM, normal glucose (NG) solution or in some instances, with a 15 mM, intermediary glucose (IG) solution. See, for example, FIG. 6. Subsequently, the cells were incubated for 24 hours. The same protocol was used for incubation with Nε-(carboxymethyl)lysine (CML, final concentration 1 micromolar) and 1,3-morpholino sidnonimine (SIN-1, final concentration 0.5 mM). […] In a cell viability assay, fresh, untreated HUVEC cells were grown in 6 well plates until 80% confluence. Subsequently, the incubation medium was removed and the cells were washed with HBSS and harvested with trypsin. All cell material, including the medium and the HBSS wash, was collected and centrifuged for 5 minutes at 500×g. […] The number of viable (white) and dead (blue) cells were counted in 25 squares, and the count was repeated an additional two times for each sample, for a total of three counts per sample. […] The percentage of dead cells was then calculated with the formula: (blue cells/(blue cells+white cells))*100.

HUVEC cells [2] = assay: Oxidative damage: protein carbonyls in HUVEC; assay type: cell-based, human; conditions: HG 30 mM glucose 24 h, with or without 5 mM ERT/MAN
Method: The prepared cells were seeded in 6 well plates and T75 flasks and grown until 80% confluence. The medium was removed, and the cells were washed with Hank's Balanced Salt Solution (HBSS). […] The vehicle solution is the solvent for the test compounds, in this case being the medium without supplements. […] The cells described above were also incubated for 24 hours with a 7 mM, normal glucose (NG) solution or in some instances, with a 15 mM, intermediary glucose (IG) solution. See, for example, FIG. 6. Subsequently, the cells were incubated for 24 hours. The same protocol was used for incubation with Nε-(carboxymethyl)lysine (CML, final concentration 1 micromolar) and 1,3-morpholino sidnonimine (SIN-1, final concentration 0.5 mM). […] Hyperglycemia is strongly associated with oxidative stress, an imbalance between the formation of reactive oxygen species and the present antioxidants. Excess reactive oxygen species react with critical cellular targets, viz. membrane lipids, proteins and (deoxy)ribonucleic acids. […] Accordingly, one of the targeted assays included studying a comparison of HG to HGERT conditions, where the oxidative damage was evaluated showing that the protein carbonyls decreased from 6.55 nM/mg protein with HG to 3.77 with […]=0.089). Protein carbonyls are end products of reactions between proteins and reactive oxygen species (ROS), formed during oxidative stress. […]

[3] = test system: Mouse intestine (entero-endocrine) STC-1 cells
Method: Appropriate blanks, positive controls, and standards were also included.
The lactate dehydrogenase (LDH) leakage from cells was analyzed in the supernatants as a marker for cytotoxic cell death.

[NH-]c1c[n+](N2CCOCC2)no1 [SIN-1, 3-morpholinosidnonimine]
percentage of dead cells (Average) (HUVEC cells [1]; HG 30 mM glucose 24 h, listed as SIN): 12.59% | percentage of dead cells (Average) (HUVEC cells [1]; NG 7 mM glucose 24 h): significant increase in the amount of dead cells; also recorded: increased the number of dead cells | percentage of dead cells (Average) (HUVEC cells [1]; NG 7 mM glucose 24 h, listed as SIN): 12.29%

OC[C@@H](O)[C@@H](O)[C@H](O)[C@H](O)CO [MAN, (2R,3R,4R,5R)-hexaan-1,2,3,4,5,6-hexol, reference compound]
protein carbonyls (HUVEC cells [2]): did not reduce protein carbonyls

O=C(CO)[C@@H](O)[C@H](O)[C@H](O)CO [fructose]
cell death (leakage of lactate dehydrogenase) ([3]; STC-1 cells, 10% w/v, 2 hours at 37° C.): cell death was higher

OC[C@H]1O[C@@](CO)(O[C@H]2O[C@H](CO)[C@@H](O)[C@H](O)[C@H]2O)[C@@H](O)[C@@H]1O [sucrose]
cell death (leakage of lactate dehydrogenase) [3]: cell death was higher

O=C(CO)[C@@H](O)[C@H](O)[C@H](O)CO[C@H]1O[C@H](CO)[C@@H](O)[C@H](O)[C@H]1O [6-O-α-D-glucopyranosyl-D-fructose]
cell death (leakage of lactate dehydrogenase) [3]: cell death was higher
